Experimental data published in patent publication US20250195681A1, “ANTI-GPC3 ANTIBODY DRUG CONJUGATE AND USE THEREOF” (DUALITY BIOLOGICS (SUZHOU) CO., LTD., priority 2022, published 2025).

What was measured:
[1] = tested on: advanced liver cancer; conditions: patients with high GPC3 expression; cited from earlier work
[2] = tested on: advanced liver cancer; conditions: Phase II; cited from earlier work
[3] = tested on: NCI-N87; experiment: In vitro proliferation inhibition of small molecule payloads, CTG, 6 days (3.3); format: cell-based; conditions: Homo sapiens, NCI-N87, 144 h, read-out: Abs-IC50 NCI-N87
Description: (§1) To detect the in vitro proliferation inhibitory activity of the drug compounds on NCI-N87 and Colo205 tumor cells. Cells were treated with different concentrations of the compounds in vitro, and after 6 days of culture, cell proliferation was detected using the CTG (CellTiter-Glo® Luminescent Cell Viability Assay, Promega, Cat. No.: G7558) reagent. The IC50 value was used to assess the in vitro activity of the compounds.
(§2) 1. Cell culture: NCI-N87 and Colo205 cells were cultured in RPMI-1640 medium containing 10% FBS.
(§3) 2. Cell preparation: NCI-N87 and Colo205 cells in the logarithmic growth phase were washed once with PBS, then digested with 2-3 mL of trypsin for 2-3 minutes. Once the cells were fully digested, 10-15 mL of cell culture medium was added to wash off the digested cells. The mixture was then centrifuged at 1000 rpm for 5 minutes, then the supernatant was discarded, and the cells were resuspended in 10-20 mL of cell culture medium to prepare a single-cell suspension.
(§4) 3. Cell plating: The single-cell suspension of NCI-N87 and Colo205 was mixed well, and the density of viable cells was adjusted to 6×10^4 cells/mL using a cell culture medium. The density-adjusted cell suspension was mixed well and added to a 96-well cell culture plate at 50 μL per well. The culture plate was incubated in an incubator for 18 hours (37° C., 5% CO2).
(§5) 4. Compound preparation: The compounds were dissolved in DMSO to prepare stock solutions with an initial concentration of 10 mM.
(§6) Eight concentrations of the small molecule compounds were prepared: 300, 100, 30, 10, 3, 1, 0.3, and 0.1 nM.
(§7) 5. Sample addition operation: The prepared samples at different concentrations were added to a culture plate, with two replicate wells for each sample. The culture plate was incubated in an incubator for 6 days (37° C., 5% CO2).
6. […]
(§8) 7. Plate reading operation: The 96-well cell culture plate was placed in a microplate reader, and the chemiluminescence was measured with the microplate reader.
(§9) Data analysis: The data were processed and analyzed using Microsoft Excel and GraphPad Prism 5.

[4] = tested on: Colo205; experiment: as above; format: cell-based; conditions: Homo sapiens, COLO 205, 144 h, read-out: Abs-IC50 Colo205
Description: as §1, §2, §3, §4, §5, §6, §7
6. […]
as §8, §9

[5] = tested on: JIMT-1; experiment: In vitro proliferation inhibition of small molecule payloads, CTG, 6 days (3.2); format: cell-based; conditions: Homo sapiens, JIMT-1, 144 h, read-out: JIMT-1 IC50
Description: as §1, with “NCI-N87, JIMT-1,” for “NCI-N87”, “MBA-MB-231” for “Colo205”
1. Cell culture: NCI-N87, JIMT-1, and MBA-MB-231 cells were cultured in RPMI-1640 medium containing 10% FBS.
2. Cell preparation: NCI-N87, JIMT-1, and MBA-MB-231 cells in the logarithmic growth phase were washed once with PBS, then digested with 2-3 mL of trypsin for 2-3 minutes. […]
as §8, §9
8. Data analysis: The cell viability was calculated using the formula: Vsample/Vvehicle control x 100% where Vsample represents the reading from the drug-treated group, and Vvehicle control represents the average value of the vehicle control group. GraphPad Prism software was used to plot the S-shaped dose-viability curve using a nonlinear regression model, and the IC50 values were calculated.

Codrituzumab
disease progression (in words) [1]: showed a trend of delayed disease progression | survival (in words) [2]: did not demonstrate a statistically significant improvement in survival

CC[C@@]1(O)C(=O)OCc2c1cc1n(c2=O)Cc2c-1nc1cc(F)c(C)c3c1c2[C@@H](NC(=O)CO)CC3 [Preparation Example 9, DXd, reference compound]
IC50 [3]: 13.9 nM | IC50 [4]: 294 nM

CC[C@@]1(O)C(=O)OCc2c1cc1n(c2=O)Cc2c-1nc1cc(F)c(C)c3c1c2[C@@H](NC(=O)CCN)CC3 [Reference Example 1]
IC50 [5]: 36.2 nM

CC[C@@]1(O)C(=O)OCc2c1cc1n(c2=O)Cc2c-1nc1cc(F)c(C)c3c1c2[C@@H](NC(=O)CCO)CC3 [Preparation Example 8]
IC50 [3]: 15.1 nM
